Target: T1, porcine pancreatic α-amylase (Sus scrofa, UniProt P00690)
T1 sequence (P00690 16-511): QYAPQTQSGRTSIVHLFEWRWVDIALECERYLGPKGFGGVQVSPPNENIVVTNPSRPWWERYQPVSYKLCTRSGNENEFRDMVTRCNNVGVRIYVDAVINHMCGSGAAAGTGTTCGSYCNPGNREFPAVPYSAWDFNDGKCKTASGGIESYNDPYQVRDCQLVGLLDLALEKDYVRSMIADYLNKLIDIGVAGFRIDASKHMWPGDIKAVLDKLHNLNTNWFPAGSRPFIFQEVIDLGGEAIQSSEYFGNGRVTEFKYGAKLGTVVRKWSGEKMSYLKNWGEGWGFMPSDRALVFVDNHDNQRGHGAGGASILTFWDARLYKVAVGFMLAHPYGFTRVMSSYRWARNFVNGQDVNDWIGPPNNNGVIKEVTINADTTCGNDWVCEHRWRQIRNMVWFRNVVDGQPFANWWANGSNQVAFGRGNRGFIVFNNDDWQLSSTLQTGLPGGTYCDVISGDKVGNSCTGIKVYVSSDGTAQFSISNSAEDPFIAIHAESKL
Assay: 1H NMR of aggregation of PC C1 with α-amylase
Format: binding
Settings: for adsorption of PC C1 on the surface of α-amylase: 1 mM (0.75 μmol) PC C1; for PC C1 signal intensities after addition of α-amylase: 275 K
Protocol: ^1H NMR experiments were conducted to investigate the aggregation of PC C1 with α-amylase. First, 1 mM PC C1 (0.75 μmol) was measured, and then, α-amylase was added at concentrations of 10 and 20 μM. The relative decrease in intensity of PC C1 signals in the range of 6.866–7.040 ppm (E2′, H6′, B2′, B5′, E5′, E6′, and H5′) was used to calculate the proportion of PC C1 aggregated with α-amylase. Blank measurements were performed with 10 and 20 μM α-amylase dissolved in the same buffer without PC C1. Data were acquired using a Bruker Avance III HD 600 MHz NMR spectrometer equipped with a 5 mm BBFO probe (Smart Probe) with ATM and a z-gradient. Spectra were recorded at 275 K (2 °C) in 0.1 M phosphate buffer/0.04 M NaCl phosphate buffer, pH 7, in D2O:H2O (9:1). The pulse program zgesgp was used with a spectral width of 16 ppm, and all spectra were recorded with 512 scans, an acquisition time of 1.70 s, and a recycle delay (D1) of 1 s. Data were analyzed using TopSpin software (version 4.4.1, Bruker).

`Oc1cc(O)c2c(c1)O[C@H](c1ccc(O)c(O)c1)[C@H](O)[C@H]2c1c(O)cc(O)c2c1O[C@H](c1ccc(O)c(O)c1)[C@H](O)[C@H]2c1c(O)cc(O)c2c1O[C@H](c1ccc(O)c(O)c1)[C@H](O)C2` [PC C1, procyanidin C1] was tested, and the “ratio of PC C1 to α-amylase” value (10 μM α-amylase) was 26, the “adsorption of PC C1 on the surface of α-amylase” value (10 μM α-amylase) was 0.20 µmol and the “ratio of PC C1 to α-amylase” value (20 μM α-amylase) was 18. For the same compound, the “adsorption of PC C1 on the surface of α-amylase” value (20 μM α-amylase) was 0.28 µmol, the “PC C1 signal intensities after addition of α-amylase” value (1 mM PC C1, 10 μM α-amylase) was 73% and the “PC C1 signal intensities after addition of α-amylase” value (1 mM PC C1, 20 μM α-amylase) was 63%.
